Read-outs that look alike come from different tables or passages of the source.
Tests used:
AmpC = molecular target: T1, AmpC (Pseudomonas aeruginosa, UniProt P24735); assay: biochemical
T1 construct: AmpC, TEM-1, KPC-2 or OXA-2 domain excluding signal peptide was amplified with PCR; made in house; host or cells: Escherichia coli BL21 (DE3), pET-28b(+)

TEM-1 = molecular target: T2, TEM-1 (Escherichia coli, UniProt P62593); assay: β-Lactamase inhibitory activity (nitrocefin hydrolysis), TEM-1; type: biochemical; conditions: TEM-1 0.1 nM, 100 μM nitrocefin, pre-incubation 30° C. 10 minutes
T2 construct: AmpC, TEM-1, KPC-2 or OXA-2 domain excluding signal peptide was amplified with PCR; made in house; host or cells: Escherichia coli BL21 (DE3), pET-28b(+)
T2 sequence (P62593 24-286 limits assumed): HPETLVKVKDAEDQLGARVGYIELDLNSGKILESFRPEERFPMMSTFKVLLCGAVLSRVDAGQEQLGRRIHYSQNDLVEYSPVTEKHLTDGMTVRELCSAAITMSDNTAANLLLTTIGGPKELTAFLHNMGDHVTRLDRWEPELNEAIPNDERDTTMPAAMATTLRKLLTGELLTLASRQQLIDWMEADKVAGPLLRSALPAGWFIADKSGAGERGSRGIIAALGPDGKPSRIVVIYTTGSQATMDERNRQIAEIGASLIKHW
Protocol: Using Pseudomonas aeruginosa ATCCBAA-47 genome, plasmid pBR322, Klebsiella pneumoniae ATCCBAA-1705, and P. aeruginosa MSC17696 as a template, each DNA for encoding β-lactamase, AmpC, TEM-1, KPC-2 or OXA-2 domain excluding signal peptide was amplified with PCR. Each of the PCR product was incorporated into pET-28b(+)vector (Merck), introduced into Escherichia coli BL21 (DE3) (Merck), and, under induction of 1 mM isopropyl-β-D-(−)-thiogalactopyranoside (Nacalai Tesque), cultured overnight at 20° C. to express AmpC, TEM-1, KPC-2, and OXA-2. After the bacterial cell was collected, AmpC was purified from the cell extract obtained by ultrasonic treatment, using CM Sepharose Fast Flow (GE Healthcare) and HiTrap Heparin HP (GE Healthcare) at 4° C. TEM-1 was purified with HiTrap SPHP (GE Healthcare), HiTrap Q (GE Healthcare) and Mono Q (GE Healthcare), and KPC-2 was purified with HiTrap SPHP. OXA-2 was purified with HiTrap SPHP and HiTrap Heparin HP.
For the measurement of β-lactamase inhibitory activity, 100 μM (final concentration) nitrocefin (Oxoid) was used as a substrate, and 2.5% DMSO, 10 μg/mL bovine serum derived albumin (Sigma-Aldrich) and 50 mM phosphate buffer at pH 7.0 were used as a reaction solution. […] Nitrocefin was added to each well to be mixed therein, followed by incubation at 30° C. for 20 minutes, and Multiscan Ascent (Thermo Fisher Scientific) was used to measure 492 nm wavelength, thereby measuring nitrocefin hydrolytic activity of β-Lactamase, to determine enzyme inhibitory activity. […] As the inhibitory activity strength, less than 0.1 μM, less than 1 μM, less than 3 μM, less than 10 μM, and 10 μM or more were shown with A, B, C, D, and E respectively.

OXA-2 = molecular target: T3, OXA-2 (Escherichia coli, UniProt P0A1V9); assay: biochemical; set-up: species or system P. aeruginosa
T3 construct: AmpC, TEM-1, KPC-2 or OXA-2 domain excluding signal peptide was amplified with PCR; made in house; host or cells: Escherichia coli BL21 (DE3), pET-28b(+)
T3 sequence (P0A1V9 22-275): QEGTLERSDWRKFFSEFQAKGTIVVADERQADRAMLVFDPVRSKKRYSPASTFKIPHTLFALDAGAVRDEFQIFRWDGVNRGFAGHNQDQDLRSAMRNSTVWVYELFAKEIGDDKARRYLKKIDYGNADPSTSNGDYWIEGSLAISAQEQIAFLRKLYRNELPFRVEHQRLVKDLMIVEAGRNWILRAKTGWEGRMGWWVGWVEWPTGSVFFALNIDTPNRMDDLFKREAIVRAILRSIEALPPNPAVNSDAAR

KPC-2 = molecular target: T4, KPC-2 (Klebsiella pneumoniae, UniProt Q9F663); assay: β-Lactamase inhibitory activity (nitrocefin hydrolysis), KPC-2; type: biochemical; conditions: KPC-2 0.5 nM, 100 μM nitrocefin, pre-incubation 30° C. 10 minutes
T4 construct: AmpC, TEM-1, KPC-2 or OXA-2 domain excluding signal peptide was amplified with PCR; made in house; host or cells: Escherichia coli BL21 (DE3), pET-28b(+)
T4 sequence (Q9F663 25-293, looked up): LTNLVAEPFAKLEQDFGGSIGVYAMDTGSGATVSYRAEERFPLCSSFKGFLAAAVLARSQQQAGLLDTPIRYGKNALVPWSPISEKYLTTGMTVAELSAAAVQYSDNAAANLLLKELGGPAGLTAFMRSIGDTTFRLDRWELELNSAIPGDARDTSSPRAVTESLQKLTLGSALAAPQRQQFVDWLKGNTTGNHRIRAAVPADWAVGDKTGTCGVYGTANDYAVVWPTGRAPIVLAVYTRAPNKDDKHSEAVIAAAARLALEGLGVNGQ

[1] = OXA-2 2 nM, 100 μM nitrocefin, pre-incubation 30° C. 10 minutes, read-out: β-Lactamase inhibitory activity OXA-2 (IC50)

T1 sequence (P24735 27-397): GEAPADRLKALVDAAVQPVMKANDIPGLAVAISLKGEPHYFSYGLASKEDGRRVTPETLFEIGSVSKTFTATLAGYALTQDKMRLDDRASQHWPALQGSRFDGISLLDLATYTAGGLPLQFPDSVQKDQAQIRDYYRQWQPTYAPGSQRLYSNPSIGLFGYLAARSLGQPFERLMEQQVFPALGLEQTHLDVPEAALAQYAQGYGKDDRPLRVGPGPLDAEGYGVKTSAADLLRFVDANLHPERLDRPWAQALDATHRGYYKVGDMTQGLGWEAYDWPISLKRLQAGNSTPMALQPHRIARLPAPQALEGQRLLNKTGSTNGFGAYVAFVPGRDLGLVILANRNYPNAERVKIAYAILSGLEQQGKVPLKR

## COCC(=O)NNC(=O)[C@@H]1CC[C@@H]2CN1C(=O)N2OS(=O)(=O)O [Example 29, Sodium (2S,5R)—N′-(methoxyacetyl)-7-oxo-6-(sulfooxy)-1,6-diazabicyclo[3.2.1]octane-2-carbohydrazide]
AmpC
  IC50: 100 to 1000 nM
TEM-1
  IC50: < 100 nM
OXA-2
  IC50: 3000 to 10000 nM
KPC-2
  IC50: 100 to 1000 nM

## Nc1ccc(C(=O)NNC(=O)[C@@H]2CC[C@@H]3CN2C(=O)N3OS(=O)(=O)O)cc1 [Example 31, (2S,5R)—N′-(4-Aminobenzoyl)-7-oxo-6-(sulfooxy)-1,6-diazabicyclo[3.2.1]octane-2-carbohydrazide]
AmpC
  IC50: 100 to 1000 nM
TEM-1
  IC50: < 100 nM
OXA-2; [1]
  IC50: 3000 to 10000 nM
KPC-2
  IC50: 100 to 1000 nM

## O=C(NNC(=O)[C@@H]1CC[C@@H]2CN1C(=O)N2OS(=O)(=O)O)C1CCOCC1 [Example 34, Sodium (2S,5R)-7-oxo-6-(sulfooxy)-N′-(tetrahydro-2H-pyran-4-ylcarbonyl)-1,6-diazabicyclo[3.2.1]octane-2-carbohydrazide]
AmpC
  IC50: < 100 nM
TEM-1
  IC50: < 100 nM
OXA-2
  IC50: 3000 to 10000 nM
KPC-2
  IC50: 100 to 1000 nM

## O=C(NNC(=O)[C@@H]1CC[C@@H]2CN1C(=O)N2OS(=O)(=O)O)C1CCNCC1 [Example 35, (2S,5R)-7-Oxo-N′-(piperidine-4-ylcarbonyl)-6-(sulfooxy)-1,6-diazabicyclo[3.2.1]octane-2-carbohydrazide]
AmpC
  IC50: 100 to 1000 nM
TEM-1
  IC50: < 100 nM
OXA-2; [1]
  IC50: 1000 to 3000 nM
KPC-2
  IC50: 3000 to 10000 nM

## O=C(NNC(=O)[C@@H]1CC[C@@H]2CN1C(=O)N2OS(=O)(=O)O)[C@@H]1CCCCN1 [Example 36, (2S,5R)-7-Oxo-N′-[(2S)-piperidine-2-ylcarbonyl]-6-(sulfooxy)-1,6-diazabicyclo[3.2.1]octane-2-carbohydrazide]
AmpC
  IC50: 100 to 1000 nM
TEM-1
  IC50: < 100 nM
OXA-2; [1]
  IC50: 3000 to 10000 nM
KPC-2
  IC50: 1000 to 3000 nM

## O=C(NNC(=O)[C@@H]1CC[C@@H]2CN1C(=O)N2OS(=O)(=O)O)[C@H]1CCCCN1 [Example 37, (2S,5R)-7-Oxo-N′-[(2R)-piperidine-2-ylcarbonyl]-6-(sulfooxy)-1,6-diazabicyclo[3.2.1]octane-2-carbohydrazide]
AmpC
  IC50: 1000 to 3000 nM
TEM-1
  IC50: < 100 nM
OXA-2; [1]
  IC50: 1000 to 3000 nM
KPC-2
  IC50: 1000 to 3000 nM

## O=C(NNC(=O)[C@@H]1CC[C@@H]2CN1C(=O)N2OS(=O)(=O)O)[C@@H]1CCCN1 [Example 38, (2S,5R)-7-Oxo-N′-[(2S)-pyrrolidin-2-ylcarbonyl]-6-(sulfooxy)-1,6-diazabicyclo[3.2.1]octane-2-carbohydrazide]
AmpC
  IC50: 100 to 1000 nM
TEM-1
  IC50: < 100 nM
OXA-2; [1]
  IC50: 1000 to 3000 nM
KPC-2
  IC50: 100 to 1000 nM

## O=C(NNC(=O)[C@@H]1CC[C@@H]2CN1C(=O)N2OS(=O)(=O)O)[C@H]1CCCN1 [Example 39, (2S,5R)-7-Oxo-N′-[(2R)-pyrrolidin-2-ylcarbonyl]-6-(sulfooxy)-1,6-diazabicyclo[3.2.1]octane-2-carbohydrazide]
AmpC
  IC50: < 100 nM
TEM-1
  IC50: < 100 nM
OXA-2; [1]
  IC50: 1000 to 3000 nM
KPC-2
  IC50: 1000 to 3000 nM

## O=C(NNC(=O)[C@@H]1CC[C@@H]2CN1C(=O)N2OS(=O)(=O)O)[C@@H]1C[C@H](CC2CC2)CCN1 [Example 40, (2S,5R)—N′-{[(2S,4R)-4-Cyclopropylmethylpiperidine-2-yl]carbonyl}-7-oxo-6-(sulfooxy)-1,6-diazabicyclo[3.2.1]octane-2-carbohydrazide]
AmpC
  IC50: 100 to 1000 nM
TEM-1
  IC50: < 100 nM
OXA-2; [1]
  IC50: 1000 to 3000 nM
KPC-2
  IC50: 3000 to 10000 nM

## O=C1CC[C@@H](C(=O)NNC(=O)[C@@H]2CC[C@@H]3CN2C(=O)N3OS(=O)(=O)O)N1 [Example 41, Sodium (2S,5R)-7-oxo-N′-{[(2S)-5-oxopyrrolidin-2-yl]carbonyl}-6-(sulfooxy)-1,6-diazabicyclo[3.2.1]octane-2-carbohydrazide]
AmpC
  IC50: 100 to 1000 nM
TEM-1
  IC50: 100 to 1000 nM
OXA-2
  IC50: 3000 to 10000 nM
KPC-2
  IC50: 1000 to 3000 nM

## O=C1CC[C@H](C(=O)NNC(=O)[C@@H]2CC[C@@H]3CN2C(=O)N3OS(=O)(=O)O)N1 [Example 42, Sodium (2S,5R)-7-oxo-N′-{[(2R)-5-oxopyrrolidin-2-yl]carbonyl}-6-(sulfooxy)-1,6-diazabicyclo[3.2.1]octane-2-carbohydrazide]
AmpC
  IC50: 100 to 1000 nM
TEM-1
  IC50: 100 to 1000 nM
OXA-2
  IC50: 1000 to 3000 nM
KPC-2
  IC50: 100 to 1000 nM

## O=C(NNC(=O)[C@@H]1CC[C@@H]2CN1C(=O)N2OS(=O)(=O)O)c1ccco1 [Example 43, Sodium (2S,5R)—N′-(furan-2-ylcarbonyl)-7-oxo-6-(sulfooxy)-1,6-diazabicyclo[3.2.1]octane-2-carbohydrazide]
AmpC
  IC50: 100 to 1000 nM
TEM-1
  IC50: < 100 nM
OXA-2
  IC50: 1000 to 3000 nM
KPC-2
  IC50: 100 to 1000 nM

## O=C(NNC(=O)[C@@H]1CC[C@@H]2CN1C(=O)N2OS(=O)(=O)O)c1cocn1 [Example 44, Sodium (2S,5R)—N′-(1,3-oxazol-4-ylcarbonyl)-7-oxo-6-(sulfooxy)-1,6-diazabicyclo[3.2.1]octane-2-carbohydrazide]
AmpC
  IC50: < 100 nM
TEM-1
  IC50: < 100 nM
OXA-2
  IC50: 1000 to 3000 nM
KPC-2
  IC50: < 100 nM

## O=C(NNC(=O)[C@@H]1CC[C@@H]2CN1C(=O)N2OS(=O)(=O)O)c1cccnc1 [Example 45, Sodium (2S,5R)-7-oxo-N′-(pyridine-3-ylcarbonyl)-6-(sulfooxy)-1,6-diazabicyclo[3.2.1]octane-2-carbohydrazide]
AmpC
  IC50: < 100 nM
TEM-1
  IC50: < 100 nM
OXA-2
  IC50: 1000 to 3000 nM
KPC-2
  IC50: 100 to 1000 nM

## O=C(NNC(=O)[C@@H]1CC[C@@H]2CN1C(=O)N2OS(=O)(=O)O)c1ccncc1 [Example 46, Sodium (2S,5R)-7-oxo-N′-(pyridine-4-ylcarbonyl)-6-(sulfooxy)-1,6-diazabicyclo[3.2.1]octane-2-carbohydrazide]
AmpC
  IC50: < 100 nM
TEM-1
  IC50: < 100 nM
OXA-2
  IC50: 1000 to 3000 nM
KPC-2
  IC50: 100 to 1000 nM

## CN(C)C(=O)NNC(=O)[C@@H]1CC[C@@H]2CN1C(=O)N2OS(=O)(=O)O [Example 47, Sodium N,N-dimethyl2-{[(2S,5R)-7-oxo-6-(sulfooxy)-1,6-diazabicyclo[3.2.1]oct-2-yl]carbonyl}hydrazinecarboxamide]
AmpC
  IC50: 100 to 1000 nM
TEM-1
  IC50: < 100 nM
OXA-2
  IC50: 3000 to 10000 nM
KPC-2
  IC50: 100 to 1000 nM

## CCN(CC)C(=O)NNC(=O)[C@@H]1CC[C@@H]2CN1C(=O)N2OS(=O)(=O)O [Example 48, Sodium N,N-diethyl2-{[(2S,5R)-7-oxo-6-(sulfooxy)-1,6-diazabicyclo[3.2.1]oct-2-yl]carbonyl}hydrazinecarboxamide]
AmpC
  IC50: < 100 nM
TEM-1
  IC50: 100 to 1000 nM
OXA-2
  IC50: 3000 to 10000 nM
KPC-2
  IC50: 100 to 1000 nM

## O=C(NNC(=O)N1CCOCC1)[C@@H]1CC[C@@H]2CN1C(=O)N2OS(=O)(=O)O [Example 50, Sodium (2S,5R)—N′-(morpholin-4-ylcarbonyl)-7-oxo-6-(sulfooxy)-1,6-diazabicyclo[3.2.1]octane-2-carbohydrazide]
AmpC
  IC50: < 100 nM
TEM-1
  IC50: 100 to 1000 nM
OXA-2
  IC50: 3000 to 10000 nM
KPC-2
  IC50: 100 to 1000 nM

## COC(=O)NNC(=O)[C@@H]1CC[C@@H]2CN1C(=O)N2OS(=O)(=O)O [Example 51, Sodium methyl 2-{[(2S,5R)-7-oxo-6-(sulfooxy)-1,6-diazabicyclo[3.2.1]oct-2-yl]carbonyl}hydrazinecarboxylate]
AmpC
  IC50: 100 to 1000 nM
TEM-1
  IC50: < 100 nM
OXA-2
  IC50: 1000 to 3000 nM
KPC-2
  IC50: 100 to 1000 nM

## CCOC(=O)NNC(=O)[C@@H]1CC[C@@H]2CN1C(=O)N2OS(=O)(=O)O [Example 52, Sodium ethyl 2-{[(2S,5R)-7-oxo-6-(sulfooxy)-1,6-diazabicyclo[3.2.1]oct-2-yl]carbonyl}hydrazinecarboxylate]
AmpC
  IC50: 100 to 1000 nM
TEM-1
  IC50: < 100 nM
OXA-2
  IC50: 1000 to 3000 nM
KPC-2
  IC50: 100 to 1000 nM

## CS(=O)(=O)NNC(=O)[C@@H]1CC[C@@H]2CN1C(=O)N2OS(=O)(=O)O [Example 54, Sodium (2S,5R)—N′-(methylsulfonyl)-7-oxo-6-(sulfooxy)-1,6-diazabicyclo[3.2.1]octane-2-carbohydrazide]
AmpC
  IC50: < 100 nM
TEM-1
  IC50: < 100 nM
OXA-2
  IC50: 100 to 1000 nM
KPC-2
  IC50: 100 to 1000 nM

## CONC(=O)[C@@H]1CC[C@@H]2CN1C(=O)N2OS(=O)(=O)O [Example 56, Sodium (2S,5R)—N-methoxy-7-oxo-6-(sulfooxy)-1,6-diazabicyclo[3.2.1]octane-2-carboxamide]
AmpC
  IC50: 100 to 1000 nM
TEM-1
  IC50: < 100 nM
OXA-2
  IC50: 1000 to 3000 nM
KPC-2
  IC50: 100 to 1000 nM

— patent publication US10556905B2, “Processes for preparing a diazabicyclooctane compound” (priority 2012, dated 2020)
